The numbers were not newly measured in patent US6683094B2, “Antihistaminic piperidine derivatives and intermediates for the preparation thereof” (Aventis Pharmaceuticals Inc., priority 1998, dated 2004), which cites them from elsewhere.

The conditions of the series: to two primary metabolites (fexofenadine and an inactive dealkylated metabolite).

Consider `CC(C)(C)c1ccc(C(O)CCCN2CCC(C(O)(c3ccccc3)c3ccccc3)CC2)cc1` (stereo not drawn) [Terfenadine, α-[4-(1,1-dimethylethyl)phenyl]-4-(hydroxydiphenylmethyl)-1-piperidinebutanol], for which the first pass metabolism is recorded as 99%.
